In patent publication US10227331B2 (priority 2015, dated 2019):

Tests used:
IMP-1 = IMP-1 (Serratia marcescens, UniProt P52699); assay: biochemical; type: biochemical; conditions: CCF2-FA substrate, 2 hours at 25° C; read-out: IMP-1 IC50
Outline: (§1)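 Inhibitor was mixed with the metallo-β-lactamase and CCF2-FA. After 2 hours at 25° C, fluorescence of the coumarin–fluorescein cephalosporin substrate was read. IC50 was calculated with a 4-parameter fit.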

NDM-1 = NDM-1 (Klebsiella pneumoniae, UniProt C7C422); assay: biochemical; type: biochemical; conditions: CCF2-FA substrate, 2 hours at 25° C; read-out: NDM-1 IC50
NDM-1, sequence (C7C422 whole entry, looked up, species assumed): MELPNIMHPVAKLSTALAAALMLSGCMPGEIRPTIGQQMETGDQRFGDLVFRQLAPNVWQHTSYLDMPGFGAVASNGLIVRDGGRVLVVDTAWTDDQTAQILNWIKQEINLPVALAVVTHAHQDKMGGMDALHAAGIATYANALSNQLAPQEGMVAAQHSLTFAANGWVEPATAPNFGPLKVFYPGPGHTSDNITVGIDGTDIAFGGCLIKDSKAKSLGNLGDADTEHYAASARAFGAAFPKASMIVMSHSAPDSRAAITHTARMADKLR
Outline: as §1

VIM-1 = VIM-1 (Pseudomonas aeruginosa (strain ATCC 15692 / DSM 22644 / CIP 104116 / JCM 14847 / LMG 12228 / 1C / PRS 101 / PAO1), UniProt A0A0F7KYQ8); assay: biochemical; conditions: CCF2-FA substrate, 2 hours at 25° C
Outline: as §1

[1] = test system: Escherichia coli expressing NDM-1 (CLB30005, CLB30016); type: cell-based; conditions: NDM-1 (CLB30016), with imipenem 1 μg/ml, 95% inhibition of bacterial growth
Outline: (§2)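 Colonies from overnight 35 °C blood-agar cultures were suspended in saline, diluted 1:100 into 1.1× CAMHB and exposed to test compound with or without imipenem at 1 μg/ml. After 22–24 h at 35 °C, absorbance was read to find the concentration restoring imipenem susceptibility.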

[2] = test system: Klebsiella pneumoniae expressing VIM-1 (IHMA599644); type: cell-based; conditions: VIM-1 (IHMA599644), with imipenem 1 μg/ml, 95% inhibition of bacterial growth
Outline: as §2

[3] = test system: Serratia marcescens expressing IMP-1 (CL5741); type: cell-based; conditions: IMP-1 (CL5741), with imipenem 1 μg/ml, 95% inhibition of bacterial growth
Outline: as §2

[4] = test system: P. aeruginosa expressing IMP-1, efflux+ (MB9798); type: cell-based, Pseudomonas aeruginosa; conditions: for P. aeruginosa expressing IMP-1, efflux+ (MB9798) MITC95: imipenem at 2 μg/mL, in the presence of a class A, C, D serine β-lactamase inhibitor closely related to relebactam; for Efflux ratio: ratio MITC95 PA_9798/MITC95 PA_9799
Excerpt: (§3) The strain background is Pseudomonas aeruginosa PAO1.

[5] = test system: P. aeruginosa expressing IMP-1, efflux− (MB9799); assay: Efflux: concentration of MBL inhibitor which restores susceptibility to imipenem; type: cell-based, Pseudomonas aeruginosa; conditions: imipenem at 2 μg/mL, in the presence of a class A, C, D serine β-lactamase inhibitor closely related to relebactam
Excerpt: as §3

IMP-1, sequence (P52699 whole entry, looked up, species assumed): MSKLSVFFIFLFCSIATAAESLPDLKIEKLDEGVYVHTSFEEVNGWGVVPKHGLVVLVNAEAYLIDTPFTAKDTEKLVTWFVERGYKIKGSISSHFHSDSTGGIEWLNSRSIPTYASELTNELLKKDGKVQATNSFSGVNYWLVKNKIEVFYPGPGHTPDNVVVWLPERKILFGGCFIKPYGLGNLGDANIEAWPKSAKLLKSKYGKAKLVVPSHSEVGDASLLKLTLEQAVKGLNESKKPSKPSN

Compound	IC50 (IMP-1) [nM]	IC50 (NDM-1) [nM]	IC50 (VIM-1) [nM]	Escherichia coli MITC95 [1] [µM]	Klebsiella pneumoniae MITC95 [2] [µM]	Serratia marcescens MITC95 [3] [µM]	P. aeruginosa expressing IMP-1, efflux+ (MB9798) MITC95 [4] [µM]	Efflux ratio [4]	P. aeruginosa expressing IMP-1, efflux− (MB9799) MITC95 [5] [µM]
Cn1c(N)nc2c(-c3ccc(S(=O)(=O)C[C@@H](O)CN)c(S(N)(=O)=O)c3-c3nn[nH]n3)cccc21 [Example 363, (S)-3-(2-amino-1-methyl-1H-benzo[d]imidazol-4-yl)-6-((3-amino-2-hydroxypropyl)sulfonyl)-2-(2H-tetrazol-5-yl) benzenesulfonamide]	0.425	0.275	0.356	0.3906	1.563	0.7813	0.7813	1.00	0.7813
NC[C@@H](O)CS(=O)(=O)c1ccc(-c2ccc(N)nc2)c(-c2nn[nH]n2)c1S(N)(=O)=O [Example 364, (R)-6-((3-amino-2-hydroxypropyl)sulfonyl)-3-(6-aminopyridin-3-yl)-2-(2H-tetrazol-5-yl) benzenesulfonamide]	0.486	0.795	0.875	0.3418	1.563	0.9766	0.7813	1.00	0.7813
NC[C@H](O)CS(=O)(=O)c1ccc(-c2ccc(N)nc2)c(-c2nn[nH]n2)c1S(N)(=O)=O [Example 365, (S)-6-((3-amino-2-hydroxypropyl)sulfonyl)-3-(6-aminopyridin-3-yl)-2-(2H-tetrazol-5-yl) benzenesulfonamide]	1.21	1.53	0.632	0.293	2.344	0.7813	1.172	1.50	0.7813
NC[C@H](O)CS(=O)(=O)c1ccc(-c2cccc(-c3c[nH]c(N)n3)c2)c(-c2nn[nH]n2)c1S(N)(=O)=O [Example 366, (S)-3'-(2-amino-1H-imidazol-4-yl)-4-((3-amino-2-hydroxypropyl)sulfonyl)-2-(2H-tetrazol-5-yl)-[1,1'-biphenyl]-3-sulfonamide]	1.81	0.623	1.17	0.7813	1.563	1.563	3.125	2.00	1.563
NCc1nc2c(-c3ccc(S(=O)(=O)C[C@@H](O)CN)c(S(N)(=O)=O)c3-c3nn[nH]n3)cccc2[nH]1 [Example 369, (S)-6-((3-amino-2-hydroxypropyl)sulfonyl)-3-(2-(aminomethyl)-1H-benzo[d]imidazol-4-yl)-2-(2H-tetrazol-5-yl) benzenesulfonamide]	3.57	0.973	0.401	0.7813	1.563	0.7813	0.7813	1.00	0.7813
NCc1nc2c(-c3ccc(S(=O)(=O)C[C@H](O)CN)c(S(N)(=O)=O)c3-c3nn[nH]n3)cccc2[nH]1 [Example 370, (R)-6-((3-amino-2-hydroxypropyl)sulfonyl)-3-(2-(aminomethyl)-1H-benzo[d]imidazol-4-yl)-2-(2H-tetrazol-5-yl) benzenesulfonamide]	1.25	0.361	0.393	0.7813	1.563	0.7813	0.7813	1.00	0.7813
NC[C@@H](N)CS(=O)(=O)c1ccc(-c2ccc(N)nc2)c(-c2nn[nH]n2)c1S(N)(=O)=O [Example 371, (R)-3-(6-aminopyridin-3-yl)-6-((2,3-diaminopropyl)sulfonyl)-2-(2H-tetrazol-5-yl) benzenesulfonamide]	1.38	1.16	1.08	1.563	3.125	1.563	3.125	2.00	1.563
NC[C@H](N)CS(=O)(=O)c1ccc(-c2ccc(N)nc2)c(-c2nn[nH]n2)c1S(N)(=O)=O [Example 372, (S)-3-(6-aminopyridin-3-yl)-6-((2,3-diaminopropyl)sulfonyl)-2-(2H-tetrazol-5-yl) benzenesulfonamide]	1.43	1.17	0.992	0.7813	3.125	1.563	3.125	2.00	1.563
Nc1nc2c(-c3ccc(S(=O)(=O)C4CNC4)c(S(N)(=O)=O)c3-c3nn[nH]n3)cccc2n1CCO [Example 373, 3-(2-Amino-1-(2-hydroxyethyl)-1H-benzo[d]imidazol-4-yl)-6-(azetidin-3-ylsulfonyl)-2-(2H-tetrazol-5-yl)benzenesulfonamide]	0.409	0.139	0.248	0.7813	3.125	1.563	1.563	1.00	1.563
Nc1c(NCCO)cccc1-c1ccc(S(=O)(=O)C2CNC2)c(S(N)(=O)=O)c1-c1nn[nH]n1 [Example 374, 2′-Amino-4-(azetidin-3-ylsulfonyl)-3′-((2-hydroxyethyl)amino)-2-(2H-tetrazol-5-yl)-[1,1′-biphenyl]-3-sulfonamide]	2.71	1.42	2.57	3.125	6.25	3.125	6.25	2.00	3.125
NCCCNC(=O)c1cccc(-c2ccc(S(=O)(=O)CCN)c(S(N)(=O)=O)c2-c2nn[nH]n2)c1N [Example 375, 2-Amino-4′-((2-aminoethyl)sulfonyl)-N-(3-aminopropyl)-3′-sulfamoyl-2′-(2H-tetrazol-5-yl)-[1,1′-biphenyl]-3-carboxamide]	1.71	2.11	0.53	1.563	1.563	1.563	1.563	2.00	0.7813
NCCS(=O)(=O)c1ccc(-c2cccc(C(=O)N[C@H]3CCNC3)c2N)c(-c2nn[nH]n2)c1S(N)(=O)=O [Example 376, (S)-2-Amino-4′-((2-aminoethyl)sulfonyl)-N-(pyrrolidin-3-yl)-3′-sulfamoyl-2′-(2H-tetrazol-5-yl)-[1,1′-biphenyl]-3-carboxamide]	2.58	2.92	0.539	3.125	1.563	1.563	3.125	2.00	1.563
NCCS(=O)(=O)c1ccc(-c2cccc(C(=O)N[C@@H]3CCNC3)c2N)c(-c2nn[nH]n2)c1S(N)(=O)=O [Example 377, (R)-2-amino-4′-((2-aminoethyl)sulfonyl)-N-(pyrrolidin-3-yl)-3′-sulfamoyl-2′-(2H-tetrazol-5-yl)-[1,1′-biphenyl]-3-carboxamide]	1.88	1.77	0.671	1.563	3.125	1.563	3.125	2.00	1.563
